Data reported in US20160278375A1, “BISCATIONIC AND TRISCATIONIC AMPHIPHILES AS ANTIMICROBIAL AGENTS” (Temple University of the Commonwealth System of Higher …, priority 2013, published 2016).
Like-named read-outs stand apart in the source and are kept apart here.

Experiments:
[1] = tested on: Enterococcus faecalis (OG1RF); assay: MIC determination by two-fold serial dilution in 96-well microtiter plates; format: cell-based
Protocol: (§1) For the compounds above, respective minimum inhibitory concentration (MIC) values against the Gram-positive S. aureus, E. faecalis, Gram-negative E. coli and P. aeruginosa were determined, respectively, by standard methods. […] Cell viability was verified by serial dilution and plating on MH agar. Both aqueous and fresh media positive controls were performed for each trial. Overnight bacterial cultures of Staphylococcus aureus (SH1000), Enterococcus faecalis (OG1RF), Escherichia coli (MC4100), and Pseudomonas aeruginosa (PAO1-WT) were grown in Mueller-Hinton broth at 37° C., with all but E. faecalis under shaking Overnight cultures were diluted to approximately 10^6 cfu/mL as determined by OD measurement at 640 nm and plating on MH agar.
(§2) Each compound was serially diluted two-fold with water from 1 mM down to 1 μM yielding twelve dilutions per compound. In triplicate, 100 µL of each dilution were pipetted into the appropriate well of a 96-well microtiter plate, and then […] of overnight bacterial culture diluted to ca. 10^6 cfu/mL were inoculated into each well. Microtiter plates were incubated at 37° C. for 72 hours. Up to seven compounds were tested against one bacterial species at twelve decreasing concentrations per 96-well plate.

[2] = tested on: Staphylococcus aureus (SH1000); assay: as above; format: cell-based
Protocol: as §1, §2

[3] = tested on: Pseudomonas aeruginosa (PAO1-WT); assay: as above; format: cell-based
Protocol: as §1, §2

[4] = tested on: Escherichia coli (MC4100); assay: as above; format: cell-based; conditions: for MIC E. coli: Table 2, trisamine compounds
Protocol: as §1, §2

water solubility = format: physicochemical
[5] = tested on: S. aureus, E. faecalis, E. coli and P. aeruginosa; assay: MIC determination, statements across the bacteria tested; format: cell-based
Protocol: as §1, §2

[6] = Enterococcus faecalis, Table 1, 37° C., 72 hours, read-out: MIC, Gram positive E. faecalis
[7] = Staphylococcus aureus, Table 1, 37° C., 72 hours, read-out: MIC, Gram positive S. aureus
[8] = Pseudomonas aeruginosa, PAO1, Table 1, 37° C., 72 hours, read-out: MIC, Gram negative P. aeruginosa
[9] = Escherichia coli, 72 h, read-out: MIC, Gram negative E. coli
[10] = Table 2, trisamine compounds, read-out: MIC E faecalis
[11] = Table 2, trisamine compounds, read-out: MIC S. aureus
[12] = Table 2, trisamine compounds, read-out: MIC P aeruginosa
[13] = Escherichia coli, Table 1, 37° C., 72 hours, read-out: MIC, Gram negative E. coli
[14] = Table 1, 37° C., 72 hours, read-out: MIC, Gram negative P. aeruginosa
[15] = Table 1, 37° C., 72 hours, read-out: MIC, Gram negative E. coli

| Compound | MIC [1, 6] | MIC [2, 7] | MIC [3, 8] | MIC [4, 9] | other results |
| --- | --- | --- | --- | --- | --- |
| CCCCCCCCCCCCCCCCCCCC[N+](C)(C)CC[N+](C)(C)CCCCCCCCCCCCCC [(20, 2, 14)] | 16 µM | 8 µM | 63 µM | 16 µM | – |
| CCCCCCCCCCCC[N+](C)(C)CCN(C)CC[N+](C)(C)CCCCCCCCCCCC.[Br-].[Br-] [12, 2, 0, 2, 12] | – | – | – | – | MIC [1, 10]: 2 µM; MIC [2, 11]: 1 µM; MIC [3, 12]: 4 µM; MIC E. coli [4]: 1 µM |
| CCCCCCCCCCCCCCCCCCCC[N+](C)(C)CC[N+](C)(C)CCCCCCCC [(20, 2, 8)] | 4 µM | 4 µM | 32 µM | 16 µM | – |
| CCCCCCCCCCCCCCCCCCCC[N+](C)(C)CC[N+](C)(C)CCCCCCCC [Compound (20, 2, 8)] | – | – | – | – | water solubility (water solubility): fully water soluble |
| CCCCCCCCCC[N+](C)(C)CCN(C)C [(10, 2, 0)] | 250 µM | 63 µM | 250 µM | – | MIC [4, 13]: 250 µM |
| N-alkyl-N-benzyl-N,N-dimethylammonium chloride [benzalkonium chloride, reference compound] | – | – | – | – | MIC ([1]; Table 1, 37° C., 72 hours, read-out: MIC, Gram positive E. faecalis): 8 µM; MIC ([2]; Table 1, 37° C., 72 hours, read-out: MIC, Gram positive S. aureus): 8 µM; MIC [3, 14]: 63 µM; MIC [4, 15]: 32 µM; fold less activity ([5]; compared with compound (12,2,10)): 4-32 fold |
| CCCCCCCCCCCC[N+](C)(C)CCN(C)C [(12, 2, 0)] | 63 µM | 32 µM | 250 µM | – | MIC [4, 13]: 63 µM |
| CCCCCCCCCCCC[N+](C)(C)CC[N+](C)(C)CCCCCCCCCCCC [(12, 2, 12)] | 1 µM | 1 µM | 4 µM | 2 µM | – |
| CCCCCCCCCCCCCC[N+](C)(C)CC[N+](C)(C)CCCCCCCCCC [(14, 2, 10)] | 1 µM | 4 µM | 4 µM | 2 µM | – |
| CCCCCCCCCCCCCCCC[N+](C)(C)CC[N+](C)(C)CCCCCCCCCCCC [(16, 2, 12)] | 4 µM | 8 µM | 32 µM | 8 µM | – |
| CCCCCCCCCCCCCCCCCCCC[N+](C)(C)CC[N+](C)(C)CCCCCCCCCCCC [(20, 2, 12)] | 4 µM | 8 µM | 63 µM | 32 µM | – |
| CCCCCCCCCCCCCCCCCC[N+](C)(C)CC[N+](C)(C)CCCCCCCCCCCCCCCCCC [(18, 2, 18)] | 63 µM | 32 µM | 500 µM | 250 µM | – |
| CCCCCCCCCCCCCCCCCC[N+](C)(C)CC[N+](C)(C)CCCCCCCC [Compound (18, 2, 8)] | – | – | – | – | water solubility (water solubility): fully water soluble |
| CCCCCCCCCCCCCCCC[N+](C)(C)CCN(C)C [(16, 2, 0)] | 16 µM | 1 µM | 16 µM | – | MIC [4, 13]: 16 µM |
| CCCCCCCC[N+](C)(C)CC[N+](C)(C)CCCCCCCC [(8, 2, 8)] | 500 µM | 32 µM | 500 µM | 250 µM | – |
| CCCCCCCCCCCC[N+](C)(C)CC[N+](C)(C)CCCCCCCCCC [(12, 2, 10)] | 2 µM | 1 µM | 2 µM | 2 µM | – |
| CCCCCCCCCCCCCC[N+](C)(C)CC[N+](C)(C)CCCCCCCC [(14, 2, 8)] | 2 µM | 1 µM | 4 µM | 2 µM | – |
| CCCCCCCCCCCCCCCCCC[N+](C)(C)CCN(C)C [(18, 2, 0)] | 4 µM | 2 µM | – | – | MIC [3, 14]: 63 µM; MIC [4, 13]: 63 µM |
| CCCCCCCCCCCC[N+](C)(C)CC[N+](C)(C)CCCCCCCC [(12, 2, 8)] | 4 µM | 1 µM | 4 µM | 4 µM | – |
| CCCCCCCCCCCCCCCC[N+](C)(C)CC[N+](C)(C)CCCCCCCCCC [(16, 2, 10)] | 4 µM | 4 µM | 32 µM | 8 µM | – |
| CCCCCCCCCCCCCC[N+](C)(C)CCN(C)C [(14, 2, 0)] | 8 µM | 2 µM | 125 µM | – | MIC [4, 13]: 16 µM |

| Compound | MIC [1, 6] | MIC [2, 7] | MIC [3, 8] | MIC [4, 9] | other results |
| --- | --- | --- | --- | --- | --- |
| CCCCCCCCCCCCCCCCCC[N+](C)(C)CC[N+](C)(C)CCCCCCCCCCCCCCCC [(18, 2, 16)] | 32 µM | 16 µM | 63 µM | 32 µM | – |
| CCCCCCCCCCCCCCCCCC[N+](C)(C)CC[N+](C)(C)CCCCCCCCCCCC [(18, 2, 12)] | 4 µM | 4 µM | 32 µM | 16 µM | – |
| CCCCCCCCCCCCCCCCCC[N+](C)(C)CC[N+](C)(C)CCCCCCCCCC [(18, 2, 10)] | 2 µM | 4 µM | 32 µM | 16 µM | – |
| CCCCCCCCCCCCCCCC[N+](C)(C)CC[N+](C)(C)CCCCCCCCCCCCCC [(16, 2, 14)] | 2 µM | 8 µM | 63 µM | 16 µM | – |
| CCCCCCCCCCCCCCCC[N+](C)(C)CC[N+](C)(C)CCCCCCCC [(16, 2, 8)] | 2 µM | 2 µM | 4 µM | 2 µM | – |
| CCCCCCCCCC[N+](C)(C)CC[N+](C)(C)CCCCCCCCCC [(10, 2, 10)] | 8 µM | 2 µM | 8 µM | 16 µM | – |
| CCCCCCCCCCCCCC[N+](C)(C)CC[N+](C)(C)CCCCCCCCCCCCCC [(14, 2, 14)] | 2 µM | 4 µM | 32 µM | 4 µM | – |
| CCCCCCCCCCCCCC[N+](C)(C)CCN(C)CC[N+](C)(C)CCCCCCCCCCCCCC [14, 2, 0, 2, 14] | – | – | – | – | MIC ([1]; Enterococcus faecalis, Table 2, trisamine compounds, read-out: MIC E faecalis): 2 µM; MIC ([2]; Staphylococcus aureus, Table 2, trisamine compounds, read-out: MIC S. aureus): 2 µM; MIC ([3]; Pseudomonas aeruginosa, PAO1, Table 2, trisamine compounds, read-out: MIC P aeruginosa): 32 µM; MIC ([4]; Escherichia coli, read-out: MIC E. coli): 4 µM |
| CCCCCCCCCC[N+](C)(C)CC[N+](C)(C)CCCCCCCC [(10, 2, 8)] | 63 µM | 8 µM | 125 µM | 63 µM | – |
| CCCCCCCCCCCCCCCCCCCC[N+](C)(C)CC[N+](C)(C)CCCCCCCCCC [(20, 2, 10)] | 16 µM | 4 µM | 16 µM | 16 µM | – |
| CCCCCCCCCCCCC[N+](C)(C)CC[N+](C)(C)CCCCCCCCCC [Compound (13, 2, 10)] | 1 µM | 1 µM | 2 µM | 2 µM | – |
| CCCCCCCCCCC[N+](C)(C)CC[N+](C)(C)CCCCCCCCCC [(11, 2, 10)] | – | – | – | 4 µM | MIC ([1]; Enterococcus faecalis, 72 h, read-out: MIC, Gram positive E. faecalis): 4 µM; MIC ([2]; Staphylococcus aureus, 72 h, read-out: MIC, Gram positive S. aureus): 1 µM; MIC ([3]; Pseudomonas aeruginosa, PAO1, 72 h, read-out: MIC, Gram negative P. aeruginosa): 4 µM |
| CCCCCCCCCCCCCCCCCCCC[N+](C)(C)CC[N+](C)(C)CCCCCCCCCCCCCCCC [(20, 2, 16)] | 32 µM | 16 µM | 63 µM | 63 µM | – |
| CCCCCCCCCCCCCCCC[N+](C)(C)CC[N+](C)(C)CCCCCCCCCCCCCCCC [(16, 2, 16)] | 8 µM | 8 µM | 63 µM | 32 µM | – |
| CCCCCCCCCCCCCC[N+](C)(C)CC[N+](C)(C)CCCCCCCCCCCC [(14, 2, 12)] | 2 µM | 1 µM | 8 µM | 2 µM | – |
| CCCCCCCCCCCC[N+](C)(C)CC[N+](C)(C)CCCCCCCCCC [Compound (12, 2, 10)] | – | – | – | – | MIC ([5]; S. aureus, E. faecalis, E. coli, P. aeruginosa, read-out: MIC values against all four bacterial species tested): ≤ 2 µM |
| CCCCCCCCCCCCCCCCCC[N+](C)(C)CC[N+](C)(C)CCCCCCCCCCCCCC [(18, 2, 14)] | 16 µM | 8 µM | 63 µM | 16 µM | – |
| CCCCCCCCCCCCCCCCCCCC[N+](C)(C)CCN(C)C [(20, 2, 0)] | 4 µM | 4 µM | 125 µM | – | MIC [4, 13]: 63 µM |
| CCCCCCCCCCCCCCCCCC[N+](C)(C)CC[N+](C)(C)CCCCCCCC [(18, 2, 8)] | 2 µM | 2 µM | 32 µM | 8 µM | – |
| CCCCCCCCCCCCCCCCCC[N+](C)(C)CCN(C)C.[Br-] [Compound (18, 2, 0)] | – | – | 63 µM | – | MIC [4, 15]: 63 µM; MIC ([5]; S. aureus and E. faecalis, read-out: MIC values versus Gram positive bacteria): 2 to 4 µM |
| CCCCCCCCCC[N+](C)(C)CCN(C)CC[N+](C)(C)CCCCCCCCCC.[Br-].[Br-] [10, 2, 0, 2, 10] | – | – | – | – | MIC [1, 10]: 8 µM; MIC [2, 11]: 2 µM; MIC [3, 12]: 32 µM; MIC E. coli [4]: 8 µM |
